Where two headings read alike, the source gives them in different places.
Assays:
[1] = tested on: TMD8^S (DMSO passage matched, idelalisib-sensitive line); assay: CellTiter-Glo viability assay at 96 h; format: cell-based; conditions: for cell growth: FIG. 23A
Description: (§1) Growth inhibition to Idelalisib or other inhibitors was assessed using CellTiter-Glo viability assay at 96 h. […] Cell lines were analyzed by whole exome sequencing, RNASeq, and phosphoproteomics. Protein expression was measured using Simple Western and SDS/PAGE and western blot. Caspase 3/7 was measured using Caspase-Glo 3/7 assay; apoptosis was measured with Annexin V assay and propidium iodide by flow cytometry.
Cell viability EC50 was determined using a sigmoidal dose-response (variable slope) curve generated from quadruplicate samples. Statistical significance was determined using the student's t-test for cell viability and two-tailed paired t-test for apoptosis experiments in Prism (GraphPad).
Idelalisib-resistant (TMD8^R) cell line and passage-matched Idelalisib-sensitive (TMD8^S) cell line were generated according to the procedure described in Example 5 above. To characterize the resistant cells, cell viability assays, RNASeq of multidrug resistance (MDR) family of ABC transporter genes (N=33), apoptosis assays, and phosphoprotein analysis were performed. Cell viability was measured using CellTiter-Glo, as described in Example 1A above. Western blot and protein level analysis were performed after treatment with 420 nM idelalisib, 320 nM Compound B and combination thereof, using Peggy Sue (ProteinSimple) automated Western Blot system. Protein concentration (pg/μL) was quantitated using recombinant protein standards. Normalized AUC were determined for each of the treatment groups, normalized to actin. Apoptosis was assessed by propidium iodide and Annexin V/FITC staining and measured by flow cytometry, as described in Example 1A above. Western Blot with anti-p-AKT (S473) antibody and Peggy Sue were used to determine the phosphorylation state of downstream signaling components.

[2] = tested on: OCI-Ly3 cells; assay: ATPLite anti-proliferation assay (GI) and synergy score, 120 h; format: cell-based
Description: (§2) The endpoint readout of the anti-proliferation assay was based upon quantitation of ATP as an indicator of viable cells. Cells were thawed from a liquid nitrogen preserved state. Once cells had been expanded and divided at their expected doubling times, screening began. Cells were seeded in growth media in black 384-well tissue culture treated plates at 500 cells per well (except where noted in Analyzer). Cells were equilibrated in assay plates via centrifugation and placed in incubators attached to the Dosing Modules at 37° C. for twenty-four hours before treatment. […] These Tzero (T0) plates were read using ultra-sensitive luminescence on Envision Plate Readers. Treated assay plates were incubated with the compound for one hundred twenty hours. After one hundred twenty hours, plates were developed for endpoint analysis using ATPLite. All data points were collected via automated processes; quality controlled; and analyzed using Horizon CombinatoRx proprietary software. Assay plates were accepted if they pass the following quality control standards: relative luciferase values were consistent throughout the entire experiment, Z-factor scores were greater than 0.6, untreated/vehicle controls behaved consistently on the plate.
(§3) Horizon Discovery utilized Growth Inhibition (GI) as a measure of cell viability. The cell viability of vehicle was measured at the time of dosing (T0) and after one hundred twenty hours (T120). A GI reading of 0% represented no growth inhibition—cells treated with compound and T120 vehicle signals were matched. […] A GI 200% represents complete death of all cells in the culture well. Compounds reaching an activity plateau of GI 200% were considered cytotoxic. Horizon CombinatoRx calculates GI by applying the following test and equation: […]
(§4) To measure combination effects in excess of Loewe additivity, Horizon Discovery has devised a scalar measure to characterize the strength of synergistic interaction termed the Synergy Score. The Synergy Score was calculated as:
(§5) Synergy Score=log fx log fyΣmax(0,Idata)(Idata−ILoewe)
(§6) The fractional inhibition for each component agent and combination point in the matrix was calculated relative to the median of all vehicle-treated control wells. The Synergy Score equation integrated the experimentally-observed activity volume at each point in the matrix in excess of a model surface numerically derived from the activity of the component agents using the Loewe model for additivity. Additional terms in the Synergy Score equation (above) were used to normalize for various dilution factors used for individual agents and to allow for comparison of synergy scores across an entire experiment. The inclusion of positive inhibition gating or an Idata multiplier removed noise near the zero effect level, and biased results for synergistic interactions at that occur at high activity levels.
(§7) The cell viability of vehicle was measured at the time of dosing (T0) and after 120 h (T120). […] To measure combination effects, excess of Loewe additivity was used to characterize the strength of synergistic interaction, termed the synergy score. The assay and synergy score analysis were performed in accordance with the protocol set forth in Example 1B above.
(§8) The assay and synergy score analysis were performed in accordance with the protocol set forth in Example 3A above.

[3] = tested on: U2973 cells; assay: as above; format: cell-based
Description: as §2, §3, §4, §5, §6, §7, §8

[4] = tested on: SU-DHL-10 cells; assay: as above; format: cell-based
Description: as §2, §3, §4, §5, §6, §7, §8

[5] = tested on: Carnaval cells; assay: as above; format: cell-based
Description: as §2, §3, §4, §5, §6, §7, §8

[6] = tested on: HBL-1 cells; assay: as above; format: cell-based
Description: as §2, §3, §4, §5, §6, §7, §8

[7] = tested on: TMD-8 cells; assay: as above; format: cell-based
Description: as §2, §3, §4, §5, §6, §7, §8

[8] = tested on: SU-DHL-2 cells; assay: as above; format: cell-based
Description: as §2, §3, §4, §5, §6, §7, §8

[9] = tested on: U2932 cells; assay: as above; format: cell-based
Description: as §2, §3, §4, §5, §6, §7, §8

[10] = tested on: SU-DHL-6 cells; assay: as above; format: cell-based
Description: as §2, §3, §4, §5, §6, §7, §8

[11] = tested on: Pfeiffer cells; assay: as above; format: cell-based
Description: as §2, §3, §4, §5, §6, §7, §8

[12] = tested on: SU-DHL-8 cells; assay: as above; format: cell-based
Description: as §2, §3, §4, §5, §6, §7, §8

[13] = tested on: OCI-Ly4 cells; assay: as above; format: cell-based
Description: as §2, §3, §4, §5, §6, §7, §8

[14] = tested on: Ri-1 cells; assay: as above; format: cell-based
Description: as §2, §3, §4, §5, §6, §7, §8

[15] = tested on: parental TMD-8; assay: 96-hour Cell Titer Glo viability assay, parental line; design: Emax: dose or concentration left out as unconfirmed; conditions: Homo sapiens
[16] = tested on: TMD8^R cells; assay: Apoptosis, Annexin V assay and propidium iodide by flow cytometry; format: cell-based; conditions: Annexin V at 48 h, Idelalisib=1 μM
Description: as §1

| SMILES | cell growth [1] | Max. Effect (% GI) [2] [% GI] | Max. Effect (% GI) [3] [% GI] | Max. Effect (% GI) [4] [% GI] | Max. Effect (% GI) [5] [% GI] | Max. Effect (% GI) [6] [% GI] | Max. Effect (% GI) [7] [% GI] | Max. Effect (% GI) [8] [% GI] | Max. Effect (% GI) [9] [% GI] | Max. Effect (% GI) [10] [% GI] | Max. Effect (% GI) [11] [% GI] | Max. Effect (% GI) [12] [% GI] | Max. Effect (% GI) [13] [% GI] | Max. Effect (% GI) [14] [% GI] | also measured |
| --- | --- | --- | --- | --- | --- | --- | --- | --- | --- | --- | --- | --- | --- | --- | --- |
| CC#CC(=O)N1CC[C@@H](n2c(=O)n(-c3ccc(Oc4ccccc4)cc3)c3c(N)ncnc32)C1 [Compound B, 6-amino-9-[(3R)-1-(2-butynoyl)-3-pyrrolidinyl]-7-(4-phenoxyphenyl)-7,9-dihydro-8H-purin-8-one] | inhibited cell growth | 0 | 14 | 0 | 0 | 65 | 98 | 18 | 81 | 24 | 8 | 1 | 25 | 48 | EC50 ([1]; unit inferred, read-out: EC50, cell viability): 1.2 nM |
| CCC(Nc1ncnc2[nH]cnc12)c1nc2cccc(F)c2c(=O)n1-c1ccccc1 (centres unmarked) [Idelalisib, 2-(1-((9H-Purin-6-yl)amino)propyl)-5-fluoro-3-phenylquinazolin-4(3H)-one] | inhibited cell growth | 20 | 85 | 0 | 62 | 29 | 155 | 8 | 61 | 110 | 33 | 43 | 194 | 78 | EC50 ([15]; TMD8, read-out: EC50, cell viability): 54 nM; Emax ([15]; TMD8, read-out: Emax, growth inhibition): 86%; EC50 ([1]; Example 7, read-out: EC50, cell viability): 220 nM; inhibition at 1 µM ([1]; at 1 μM, read-out: Growth inhibition): 92%; apoptosis ([16]; GSK-2334470=1 μM, vehicle control 22%): 24%; apoptosis ([16]; MK-2206=1 μM, vehicle control 24%): 21% |

Source: patent US20180353512A1, “COMBINATION THERAPIES FOR TREATING B-CELL MALIGNANCIES” (GILEAD SCIENCES, INC., priority 2015, published 2018)
